Tests used:
[1] = test system: S. pneumoniae encapsulated serotype 2 strain D39; test: Inhibition of S. pneumoniae adhesion to A549 cells, strain D39; type: cell-based, Streptococcus pneumoniae; conditions: p<0.001
Experimental: Inhibition of S. pneumoniae adhesion to A549 cells by addition of phages: A549 cells (type II epithelial lung carcinoma cells; ATCC, Rockville, Md., USA) were grown in DMEM medium supplemented with 10% foetal calf serum with penicillin and streptomycin (100 μg/ml each) at 37° C. in a humidified incubator. A549 cells (2.5×10^4/well) were cultured on fibronectin coated plates, to increase A549 cell adhesion to the wells and prevent their detachment during washings, in the absence of antibiotic for 24 hours at which time the cells reached confluence (5×10^4 cells/well on average). The plates were blocked with 1% gelatine for 1 hour and 10^6 CFU bacteria were added per well. The adhesion of S. pneumoniae to uncoated plates was negligible (<80 CFU/ml). The number of bacteria that adhered to fibronectin coated plates (8000±100 SD CFU/ml on average) was subtracted afterwards to determine the net number of bacteria that adhered to the A549 cells only. rFBA at the denoted concentrations (ranging from 5-30 μg/ml) was added to the cultured cells and incubated for an hour. Following extensive washings S. pneumoniae (10^6 CFU) were added for 1 hour incubation. […]
The ability of FC derived synthetic peptide to interfere in S. pneumoniae adhesion to A459 cells was analyzed. […]

[2] = target: T1, rFBA (Streptococcus pneumoniae serotype 4, UniProt P0A4S1); test: Western blot like assay of FCRP binding to rFBA; conditions: rFBA on nitrocellulose probed with FCRP; FIG. 7C
T1 construct: made in house; host or cells: E. coli BL21(DE3)pLysS
T1 sequence (P0A4S1 whole entry): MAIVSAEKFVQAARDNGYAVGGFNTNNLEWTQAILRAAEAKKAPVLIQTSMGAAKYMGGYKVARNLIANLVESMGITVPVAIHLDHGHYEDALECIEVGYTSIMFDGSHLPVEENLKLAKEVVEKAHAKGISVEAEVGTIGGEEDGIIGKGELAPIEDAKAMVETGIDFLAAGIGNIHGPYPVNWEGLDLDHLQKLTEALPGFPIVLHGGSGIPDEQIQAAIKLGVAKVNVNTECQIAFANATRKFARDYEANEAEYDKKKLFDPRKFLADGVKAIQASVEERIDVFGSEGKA
Experimental: Western blots: rFBA and FCRP were separated by 1D-SDS PAGE, transferred to nitrocellulose and probed with FCRP or rFBA, respectively. Rabbit anti-FCRP-KLH serum or rabbit anti rFBA was added respectively. In both cases, anti-rabbit IgG (Jackson ImmunoResearch, West Grove, Pa.) was used for final identification. In the control experiment preimmune serum was used as first antibody.
To determine more directly whether FCRP binds to rFBA, Western blot like assays were performed where rFBA is separated using 1D SDS-PAGE, transferred to a nitrocellulose membrane and probed with FCRP. Binding of FCRP was detected by incubating the membrane sequentially with rabbit anti-FCRP-KLH serum and anti-rabbit IgG. […] In the control (FIG. 7D) the first antibody was a pre-immune serum. In the converse experiment, when FCRP is separated on SDS-PAGE, a band of approximately 1.5 kDa corresponding to the molecular weight of FCRP is bound by rFBA (FIG. 7 E). In the control (FIG. 7F) the first antibody was a pre-immune serum.

[3] = test system: S. pneumoniae serotype 3 strain WU2; test: Intranasal inoculation mouse model: nasopharyngeal and lung colonization; type: in vivo, BALB/c mice; conditions: for number of bacteria in the lungs: p<0.05
Experimental: Inhibition of S. pneumoniae nasal and lung colonization with flamingo cadherin-related peptide: Seven weeks old BALB/c female mice (Harlan Laboratories, Israel) were housed in sterile conditions under 12 hour light/dark cycles and fed Purina Chow and tap water ad libitum. Animal experimental protocols were reviewed and approved by the Institutional Animal Care and Use Committee of the Ben-Gurion University of the Negev, Beer Sheva, Israel. For respiratory challenge with virulent S. pneumoniae mice were anaesthetized with Isoflurane (RxElite, Meridian, Id., USA) and inoculated intranasally (i.n.) with the denoted colony forming units (CFU) bacteria (in 25 μl PBS) prior and after treatment with the flamingo cadherin derived peptide at the denoted concentrations. […] The experiments were performed with groups of 4 mice at each treatment and each time point and the experiments were repeated on three different occasions.
To find whether FC peptide is capable of inhibiting S. pneumoniae colonization, mice were inoculated intranasally prior and after treatment with the FC-derived peptide at the denoted concentration. S. pneumoniae serotype 3, strain WU2 bacteria were treated with FC peptide, excess peptide was removed and the bacteria were inoculated intranasally. […] Using this size of inoculum, a natural clearance of bacteria from the lungs occurred 24 hours and 48 hours following inoculation.
Seven week old BALB/c female mice were anaesthetized with Isoflurane (RxElite, Meridian, Id.) and inoculated intranasally with S. pneumoniae serotype 3 strain WU2 ([…], a highly virulent bacterial strain) after treatment with 40 μg synthetic Flamingo cadherin receptor derived peptide (FCRP) for 1 hr. […]

In the case of “H-Ala-Asp-Ser-Asp-Ser-Asp-Ser-Asp-Leu-Ser-Leu-Glu-Glu-Glu-Arg-OH (H-ADSDSDSDLSLEEER-OH; listed as Homo sapiens) [FCRP, 15 amino acid peptide from Flamingo-cadherin]”, the “inhibition of adhesion to A549” value ([1]; 5 μg/well) is reported as “significantly”, the “inhibition of adhesion to A549 cells” value ([1]; 20 μg/well) is reported as 90% and the “binding of FCRP to rFBA” value [2] is reported as “a band of 33.5 kDa was shown to bind FCRP”. For the same substance, the bacterial colonization ([3]; 5×10^6 bacteria, 40 μg ex vivo, FIG. 11A) was “significant inhibition of bacterial colonization”, the “aspiration to the lung” value ([3]; 5×10^6 bacteria, 40 μg ex vivo, FIG. 11B) was “reduced aspiration to the lung” and the pneumonia development ([3]; 5×10^6 bacteria, 40 μg ex vivo, FIG. 11C) was “reduced pneumonia development”. The nasopharyngeal colonization ([3]; 10^6 bacteria treated ex vivo 1 hr with 40 μg, 3, 24, 48 hours, FIG. 9A) was “inhibited nasopharyngeal colonization significantly”, the “aspiration to the lungs” value ([3]; 10^6 bacteria treated ex vivo 1 hr with 40 μg, FIG. 9B) was “significant inhibition of aspiration to the lungs” and the “bacterial load (FIG. 13A)” value ([3]; 10^7 bacteria, pre-treatment, 3 and 48 hrs) was “reduced bacterial load significantly”. For the same substance, the “bacterial load in lungs (FIG. 13B)” value ([3]; 10^7 bacteria, pre-treatment, 24 hour) was “clear reduction in bacterial load”, the “number of bacteria in the lungs” value ([3]; co-administered, 4 hours after inoculation) was “reduced significantly” and the “colonization in the nasopharynx” value ([3]; inoculum 5×10^5, 20 μg/ml, 3, 6, 24 and 48 hours, FIG. 4A) was “inhibited colonization in the nasopharynx significantly”. The “colonization of the nasopharynx” value ([3]; inoculum 5×10^5, 40 μg/ml, all time points, FIG. 4A) was “prevented S. pneumoniae colonization of the nasopharynx at all time points tested”, the “colonization of the lung” value ([3]; inoculum 5×10^5, 20 or 40 μg/ml, 3 and 6 hours, FIG. 4B) was “inhibited significantly colonization of the lung” and the “colonization in the nasopharynx” value ([3]; inoculum 10^6, 20 μg/ml, 3, 6, 24 and 48 hours, FIG. 4C) was “inhibited colonization in the nasopharynx significantly”. For the same substance, the “colonization of the lung” value ([3]; inoculum 10^6, 40 μg/ml, 3, 6 and 24 hours, FIG. 4D) was “significantly inhibited colonization of the lung”, the “colonization of the nasopharynx” value ([3]; inoculum 10^6, 40 μg/ml, FIG. 4C) was “significantly higher ability to inhibit S. pneumoniae colonization of the nasopharynx” and the “bacteria in the lungs” value ([3]; inoculum 10^6, 20 or 40 μg/ml, 48 hours, FIG. 4D) was “no bacteria could be detected in the lungs”. The “bacteria in the lungs” value ([3]; new peptide preparation, 48 hr following inoculation, FIG. 10C) was “no bacteria could be found in the lungs”, the nasopharyngeal colonization ([3]; new peptide preparation, pneumonia-causing batch, 10^6 bacteria, FIG. 10A) was “prevented completely” and the “aspiration of the bacteria to the lungs” value ([3]; new peptide preparation, pneumonia-causing batch, 10^6 bacteria, FIG. 10B) was “prevented completely”. For the same substance, the “number of bacteria in the lungs” value ([3]; peptide 1 hr after inoculation, 3 hours after peptide) was “reduced significantly”.
